Data from patent publication US9642859B2, “Use of capsazepine and analogs thereof to treat cancer” (THE BOARD OF REGENTS OF THE UNIVERSITY OF TEXAS SYSTEM, priority 2012, dated 2017).
pIC50: −log10 of the molar value. “Also recorded” adds a separate entry of the source.

Tests used:
HSC3 cells = test: Cell viability assay of HSC3 cells, dose response curve; type: cell-based; conditions: Homo sapiens, HSC-3, HSC3 cells, FIG. 1K
Text: FIG. 1K. Cell viability assay of HSC3 cells treated with increasing concentrations of curcumin; […]

Cal27 = test: Additional cell proliferation assay, Cal27; type: cell-based, human; conditions: Cal27, 24 hour treatment
Text: (§1) Observed reductions in cell proliferation in these additional in vitro studies are as follows: SCC4, 40%; HSC3, 50%; SCC25, 80%; Cal27, 15%; MDA231, 56%; and LnCap, 37%.

[1] = tested on: OSCC cell lines (HSC3, SCC4, and SCC25); test: Calcium imaging of OSCC cell lines; type: cell-based, human; conditions: capsazepine 30 μM (cytotoxic dose)
Procedure: FIGS. 1J-1 to 1J-2. FIGS. 1J-1(a) to (c): […] FIGS. 1J-2(a) to (c): […] Arrow indicates time point when treatment was added. […] This was due to the toxic effects of this high capsaicin concentration which permeablized the cell membrane allowing calcium to flow freely […] the cell. This was not reversed by capsazepine. […] These finding confirm that activation of TRPV1 is not the mechanism by which cell death is induced using capsazepine.

[2] = tested on: immortalized human bronchiolar epithelial cell line transformed with a TRPV1 insert; conditions: TRPV1-overexpressing cultured cells; cited from earlier work
[3] = rat model, high intravenous administration dose; cited from earlier work
SCC25 = test: Cell cycle analysis by DNA profile FACS, SCC25; type: cell-based, human; conditions: 24 hours
Procedure: (§2) In particular, Table 1 provides additional cell cycle distribution data of OSCC cells (%) treated with 0 μM, 30 μM, 60 μM, or 90 μM CPZ for 24 hours. Data for OSCC cell lines HSC3, SCC4, and SCC25 are also provided in diagrams of FIGS. 1G-1, 1G-2, and 1G-3, respectively.

SCC25 xenografts = test: OSCC mouse xenograft model, SCC25; type: in vivo, athymic nude (nu/nu) mice
Text: Animals. Six week-old female athymic nude (nu/nu) mice were purchased from HARLAN Laboratories (Indianapolis, Ind.) and used in a laminar air-flow cabinet under pathogen-free conditions. They were provided with a 12-h light/dark schedule at controlled temperature and humidity with food and water ad libitum. Mice were allowed to acclimate for at least one week prior to the start of the experiments. All procedures were approved by the UTHSCSA (University of Texas Health Science Center—San Antonio) Institutional Animal Care and Use Committee.
OSCC Mouse Xenograft Model. Mice were injected subcutaneously in the right flank with 2×10^6 HSC3, SCC4, or SCC25 cells in 0.1 ml of sterile phosphate buffered saline (each of these cell lines is published in scientific literature). Four weeks post-inoculation, tumors had grown to an average volume of 110 mm^3. […] The injections were repeated every other day and for a total of at least 14 days.
Treatments. CPZ (5 mg) was diluted in 250 μl of 100% DMSO to yield a final concentration of 20 μg/μl of stock solution. Stock solution (100 m) was subsequently diluted in 7% DMSO in sterile saline generating a final concentration of 1 μg/μl. […] Control xenografts were injected intra-tumorally with 40 μl of vehicle control (7% DMSO). Mice were monitored daily for tumor growth, cachexia, and weight loss. Tumor volumes and body weight were recorded every other day. Tumor volumes were calculated by the formula: (4π/3)×(w/2)2×(l/2), where w=width and l=length. Measurements were made using a digital caliper. At the conclusion of the experiments, mice were anaesthetized with isoflurane and cervical dislocation, blood was collected, and the serum was separated and stored at −80° C. until assayed. Biochemical analysis of serum was performed by the Mouse Metabolic Phenotyping Center (Yale School of Medicine, New Haven, Conn.). Tumors were dissected and placed in 10% neutral buffered formalin (SIGMA, St. Louis, Mo.) and processed for histological analysis.

HSC3 = test: Additional cell proliferation assay, HSC3; type: cell-based, human; conditions: HSC3, 24 hour treatment
Text: as §1

[4] = tested on: prostate cancer cell line LnCap; test: Additional cell proliferation assay, LnCap; type: cell-based; conditions: 24 hour treatment
Text: as §1

[5] = tested on: OSCC cell lines (HSC3, SCC4, and SCC25); test: Western blot analysis of cleaved PARP; type: cell-based, human; conditions: increasing doses of CPZ, 24 h
Procedure: FIG. 1F. […] The Control (Ctrl) is […].
as §2

[6] = tested on: breast cancer cell line MDA231; test: Additional cell proliferation assay, MDA231; type: cell-based, human; conditions: MDA231, 24 hour treatment
Text: as §1

OKF6 cells = test: Cell viability assay of immortalized non-malignant oral keratinocytes; type: cell-based; conditions: 24 hours
Text: FIG. 1D-2. […] Treatment with high concentrations of CAP induces death of normal, non-malignant OKF6 cells. The effect of which was reversed by the pre-treatment with CPZ.

For `Oc1cc2c(cc1O)CN(C(=S)NCCc1ccc(Cl)cc1)CCC2` [CPZ, 2-[2-(4-chlorphenyl)ethylamino-thiocarbonyl]-7,8-dihydroxy-2,3,4,5-tetrahydro-1H-2-benzazepine], the pIC50 (HSC3 cells) was 4.52, the “reduction in cell proliferation” value (Cal27) was 15% and the intra-cellular calcium levels [1] was “had no effect on intra-cellular calcium levels”. For the same compound, the “reversal of CAP-induced apoptosis by CPZ” value [2] was “failed to reverse these effects”, the hyperthermia [3] was “does not cause hyperthermia” and the G0/G1 (SCC25; SCC25, CPZ 30 μM) was 42.92%. It also gave a G2/M (SCC25; SCC25, CPZ 30 μM) of 3.3%, an S (SCC25; SCC25, CPZ 30 μM) of 9.01% and a SubG1 (SCC25; SCC25, CPZ 30 μM) of 44.77%. It also gave a G0/G1 (SCC25; SCC25, CPZ 60 μM) of 28.63%, a G2/M (SCC25; SCC25, CPZ 60 μM) of 6.11% and an S (SCC25; SCC25, CPZ 60 μM) of 14.78%. For the same compound, the SubG1 (SCC25; SCC25, CPZ 60 μM) was 50.48%, the G0/G1 (SCC25; SCC25, CPZ 90 μM) was 17.23% and the G2/M (SCC25; SCC25, CPZ 90 μM) was 2.5%. For the same compound, the S (SCC25; SCC25, CPZ 90 μM) was 10.36%, the SubG1 (SCC25; SCC25, CPZ 90 μM) was 69.91% and the “decrease in tumor volume” value (SCC25 xenografts; 20 μg CPZ (1 μg/μl) injections over two weeks, FIG. 13) was 57.5%. The healing of xenografts (SCC25 xenografts; 20 μg CPZ intra-tumoral every other day) was “Nearly complete healing”, the tumor volume (SCC25 xenografts; 20 μg CPZ intra-tumoral every other day, two weeks, p<0.05) was “significant reduction in tumor volume” and the “reduction in cell proliferation” value (HSC3) was 50%. The “reduction in cell proliferation” value [4] was 37%, the “cleaved PARP (c-PARP, marker of apoptosis)” value [5] was “induction of cleaved PARP” and the “reduction in cell proliferation” value [6] was 56%. The “effect of CPZ on CAP-induced reduction in cell viability” value (OKF6 cells; CAP 150 μM / CPZ 30 μM) was “reversed the effects” and the “toxicity on normal, non-malignant cells” value (OKF6 cells; CPZ 30 μM) was “non-toxic effect; also recorded: no toxicity was observed”.
